The test system of data set [1] is MOLM-13 cells. The experiment in a line: Annexin-V staining (apoptosis), MOLM-13. Format: cell-based, human. The note with it: single agent: IDR 3 nM, AraC 100 nM or Aza 1000 nM, 48 hours. How it is done:
MV4-11 cells were seeded in 12-well plates at a concentration of 2 × 10^5 cells/well and cultured overnight. […] MOLM-13 cells were seeded in 12-well plates at a concentration of 1 × 10^5 cells/well and cultured overnight.
Cells were harvested and incubated with Guava® Nexin Reagent (Merck Millipore Corporation, Billerica, MA). Annexin-V-positive cells were assessed using a Guava® PCA microcytometer (Merck Millipore Corporation); the percentage of annexin-V-positive cells (2000 cells per sample) was analyzed using CytoSoft™ software (Merck Millipore Corporation). Mean percentages of annexin-V-positive cells were derived from three independent experiments.

The test system of data set [2] is MCL-1, BCL2L10, survivin and cPARP in MOLM-13 cells. Nature of the data set: Western blot analysis of anti-apoptotic protein expression, MOLM-13. It is filed as cell-based, human. The note with it: MOLM-13, 24-hour treatment; gilteritinib 30 nM, AraC 100 nM, IDR 3 nM, Aza 1000 nM. Here is the method: Cell lysates were prepared in radioimmunoprecipitation assay buffer (Thermo Fisher Scientific Inc., Rockford, IL) supplemented with phosphatase (Thermo Fisher Scientific Inc.) and protease inhibitors (Merck, Billerica, MA), electrophoresed on 4%–15% gels, and subsequently transferred to polyvinylidene difluoride membranes. The membranes were blocked using Blocking One (Nacalai Tesque Inc., Kyoto, Japan) for 1 hour and then incubated overnight with primary antibodies to MCL-1, BCL210, cPARP (all from Cell Signaling Technology, Danvers, MA, USA), survivin (R&D Systems, Inc., Minneapolis, MN), and α-actin (MilliporeSigma, Burlington, MA). The membranes were washed with TBS Tween-20 (TBS-T) buffer and incubated with appropriate horseradish peroxidase-linked secondary antibodies (Cell Signaling Technology Japan K.K.) for 1 hour at room temperature. After washing the membranes in TBS-T buffer, enhanced chemiluminescence Western Blotting Detection Reagent ECL-prime (GE Healthcare, Fairfield, CT) was applied. Signals were detected with a charge-coupled device camera (ImageQuant LAS4000; GE Healthcare); signal intensity was quantified using ImageQuant™ TL software (GE Healthcare).
A general note: Immunoblotting shows a protein as a band on a membrane.

Data set [3] in a line: Pharmacokinetic assays (plasma and tumor) in nude mice xenografted with MV4-11 cells. It is filed as in vivo, mouse. The note with it: for Cmax / Tmax / AUC / half-life / clearance / Vd: nude, mouse; for AUC: read-out: AUC24; for concentration in tumor fraction versus plasma fraction: xenografted mice; for clearance: read-out: CLtot (converted); for Vd: read-out: Vss. Here is the method:
Plasma samples were prepared by centrifugation (n=3 per group; one sample in the combination group was excluded due to improper handling). […] These assays were conducted by Astellas Research Technologies Co., Ltd. under the guidance of Analysis & Pharmacokinetics Research Laboratories, Astellas Pharma, Inc., or by Nemoto Science Co., Ltd. (Ibaraki, Japan). […] Body weight and tumor assessments obtained on with MV4-11 cells received one of the following Day −1 were designated as Day 0 (baseline) measurements. combination treatments: 1. […] The percent tumor regression was calculated using the formula: […]

Where [4] appears, read: plasma, ip, 50 mg/kg, AraC in plasma, gilteritinib 3, AraC 50, IDR 0.5 mg/kg.
Where [5] appears, read: plasma, ip, AraC in plasma, gilteritinib 0, AraC 50, IDR 0.5 mg/kg.
Setting [6] is: tumor, ip, 50 mg/kg, AraC in tumor, gilteritinib 3, AraC 50, IDR 0.5 mg/kg.
Setting [7] is: tumor, ip, AraC in tumor, gilteritinib 0, AraC 50, IDR 0.5 mg/kg.
Setting [8] is: idarubicin in tumor, with versus without gilteritinib.
[9] abbreviates: tumor, iv, 0.5 mg/kg, idarubicin in tumor, gilteritinib 0, AraC 50, IDR 0.5 mg/kg.
Where [10] appears, read: tumor, iv, idarubicin in tumor, gilteritinib 3, AraC 50, IDR 0.5 mg/kg.

These results are taken from paper PMC6493465 (Oncotarget, 2019).

In general, Cmax refers to the highest concentration seen after dosing. As usually defined, the Tmax is the time at which the peak concentration occurs. Broadly, the half-life is the time in which the quantity being followed falls by half.

Counter-ions that a name gives are not always drawn. Like-named read-outs stand apart in the source and are kept apart here.

Turning to `Nc1ccn([C@@H]2O[C@H](CO)[C@@H](O)[C@@H]2O)c(=O)n1` [AraC, Cytarabine], the “mean percentage of annexin V-positive cells” value in data set [1] came to 21.9%. For the same molecule, in data set [2], the “expression of MCL-1, BCL2L10, and survivin” value is “little effect”. For the same molecule, the AUC24 ratio amounted to 0.32 in data set [3] (AraC in plasma, with versus without gilteritinib) and 1.13 in data set [3] (AraC in tumor, with versus without gilteritinib). In addition, the AUC24 in data set [3] (AraC in tumor, gilteritinib 0, AraC 50, IDR 0.5 mg/kg) amounted to 7968 ng·h/g. The maximum concentration (Cmax) is 18000 ng/mL in data set [3] (setting [4]), 28700 ng/mL in data set [3] (setting [5]), 1060 ng/g in data set [3] (setting [6]) and 904 ng/g in data set [3] (setting [7]). The Tmax in data set [3] (setting [4]) was 0.083 h; in data set [3] (setting [5]) it was 0.25 h; in data set [3] (setting [6]) it was 2 h; in data set [3] (setting [7]), 2 h. Besides, the results for the AUC in data set [3] (setting [4]) and in data set [3] (setting [5]) were 9960 ng·h/mL and 31600 ng·h/mL, respectively. For the same molecule, in data set [3], the “concentration in tumor fraction versus plasma fraction” value is listed as “higher in the plasma fraction”.
Regarding `CC(=O)[C@]1(O)Cc2c(O)c3c(c(O)c2[C@@H](O[C@H]2C[C@H](N)[C@H](O)[C@H](C)O2)C1)C(=O)c1ccccc1C3=O` [IDR, Idarubicin hydrochloride], the “mean percentage of annexin V-positive cells” value in data set [1] came to 36.6%. Also, the “expression of MCL-1, BCL2L10, and survivin” value in data set [2] is “little effect”. Also, the “AUC24 ratio” value in data set [3] (idarubicin in plasma, with versus without gilteritinib) is on record as 1.23; in data set [3] (setting [8]), 1.08. The AUC24 in data set [3] (idarubicin in tumor, gilteritinib 0, AraC 50, IDR 0.5 mg/kg) amounted to 4491 ng·h/g; in data set [3] (idarubicin in tumor, gilteritinib 3, AraC 50, IDR 0.5 mg/kg), 4855 ng·h/g. Moreover, the Cmax ratio in data set [3] (setting [8]) worked out at 1.11. In addition, the half-life in data set [3] (plasma, iv) is 2.24 h; in data set [3] (plasma, iv, 0.5 mg/kg), 1.49 h. In addition, the AUC came out at 63.3 ng·h/mL in data set [3] (plasma, iv, 0.5 mg/kg, idarubicin in plasma, gilteritinib 0, AraC 50, IDR 0.5 mg/kg) and 77.9 ng·h/mL in data set [3] (plasma, iv, idarubicin in plasma, gilteritinib 3, AraC 50, IDR 0.5 mg/kg). Also, the clearance in data set [3] (plasma, iv, 0.5 mg/kg) is 217 mL/min/kg; in data set [3] (plasma, iv), 172 mL/min/kg. The Vd in data set [3] (plasma, iv, 0.5 mg/kg) came out at 26.7 L/kg; in data set [3] (plasma, iv), 31.5 L/kg. The values for the maximum concentration (Cmax) in data set [3] (setting [9]) and in data set [3] (setting [10]) were 204 ng/g and 226 ng/g, respectively. Also, the results for the time to peak (Tmax) in data set [3] (setting [9]) and in data set [3] (setting [10]) were 4 h and 24 h, respectively. Besides, the “concentration in tumor fraction versus plasma fraction” value in data set [3] is given as “higher in the tumor fraction”.
